In ChEMBL document CHEMBL4616686, “PROTAC Compounds Targeting α-Synuclein Protein for Treating Neurogenerative Disorders: Alzheimer's and Parkinson's Diseases” (ACS Med Chem Lett, 2020) one finds Activity data, which are given here for 6 compounds.

The species named for the test is Homo sapiens. Description: Protac activity at E3 ubiquitin ligase/alpha-syn expressed in human HEK293/TREx A53T cells assessed as alpha-synuclein degradation measured as amount of protein remaining at 1 uM by ELISA relative to control. Type of test: cell-based.
Take `CNc1ccc(-c2nc3ccc(OCCOCCOCCOCCOCCOCC(=O)N[C@H](C(=O)N4C[C@H](O)C[C@H]4C(=O)N[C@@H](C)c4ccc(-c5scnc5C)cc4)C(C)(C)C)cc3s2)cc1`: the Activity is below 35%.
With `CNc1ccc(-c2nc3ccc(OCCOCCOCC(=O)N[C@H](C(=O)N4C[C@H](O)C[C@H]4C(=O)N[C@@H](C)c4ccc(-c5scnc5C)cc4)C(C)(C)C)cc3s2)cc1`, the Activity was below 35%.
In the case of `Cc1ncsc1-c1ccc([C@H](C)NC(=O)[C@@H]2C[C@@H](O)CN2C(=O)[C@@H](NC(=O)CN2CCN(CCN3CCC(O[C@H]4C[C@H](Oc5ccc6c(c5)Sc5cc([N+](=O)[O-])ccc5N6)C4)CC3)CC2)C(C)(C)C)cc1`, the Activity was below 35%.
Turning to `CNc1ccc(-c2nc3ccc(OCCOCCOCCOCCOCCOCCOCC(=O)N[C@H](C(=O)N4C[C@H](O)C[C@H]4C(=O)N[C@@H](C)c4ccc(-c5scnc5C)cc4)C(C)(C)C)cc3s2)cc1`, the Activity was below 35%.
Take `O=C1CCC(N2C(=O)c3ccc(N4CCN(CCCO[C@H]5C[C@H](Oc6ccc7c(c6)Sc6cc([N+](=O)[O-])ccc6N7)C5)CC4)cc3C2=O)C(=O)N1` (stereo partly specified): the Activity is 35 to 70%.
As for `Cc1ncsc1-c1ccc([C@H](C)NC(=O)[C@@H]2C[C@@H](O)CN2C(=O)[C@@H](NC(=O)COCCOCCOc2ccc(CN3C(=O)/C(=C/C=C/c4ccc([N+](=O)[O-])cc4)c4ccccc43)cc2)C(C)(C)C)cc1`, the figure is 35 to 70%.
